In patent US20200069691A1, “HETEROCYCLIC COMPOUNDS AS HIV PROTEASE INHIBITORS” (Merck Sharp & Dohme Corp., priority 2016, published 2020):

biological target: T1, wild-type HIV-1 protease (Human immunodeficiency virus type 1 group M subtype B, UniProt P04585); assay: Assay for Inhibition of Microbial Expressed HIV Protease (peptide substrate cleavage, LC-MS/MS readout); type: biochemical; settings: E. coli expressed wild-type HIV-1 protease, mean of at least two independent experiments, read-out: HIV Pr Enzyme HIV1 PR IC50
T1 construct: Escherichia coli expressed wild-type HIV-1 protease protein
Outline: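 Cleavage of Val-Ser-Gln-Asn-(β-naphthyl)Ala-Pro-Ile-Val (400 μM) by recombinant HIV-1 protease ([…]) ran 1 h at 30 °C after a 30 min room-temperature inhibitor preincubation in 50 mM sodium acetate pH 5.5. Product peak areas by LC-MS/MS gave inhibition; values average at least two independent runs.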

Structure (SMILES)	IC50 [nM]
CC(C)CC1(c2ccccc2)NC(=N)N(Cc2cccc(C(=O)N3Cc4nccnc4C3)c2)C1=O (stereo not drawn) [Compound 235, 3-[3-(5,7-dihydro-6H-pyrrolo[3,4-b]pyrazin-6-ylcarbonyl)benzyl]-2-imino-5-(2-methylpropyl)-5-phenylimidazolidin-4-one]	14.4
CCCC1(c2ccccc2)NC(=N)N(Cc2cccc(C(=O)N3Cc4ccccc4C3)c2)C1=O (stereo not drawn) [Compound 236, 3-[3-(1,3-dihydro-2H-isoindol-2-ylcarbonyl)benzyl]-2-imino-5-phenyl-5-propylimidazolidin-4-one]	14.4
CC(C)C[C@]1(c2ccccc2)NC(=N)N([C@H](C)c2cccc(C(=O)N3Cc4nccnc4C3)c2)C1=O [Compound 237, 3-{(1R)-1-[3-(5,7-dihydro-6H-pyrrolo[3,4-b]pyrazin-6-ylcarbonyl)phenyl]ethyl}-2-imino-5-(2-methylpropvl)-5-phenylimidazolidin-4-one]	14.5
N=C1NC(c2ccccc2)(c2ccccc2)C(=O)N1Cc1cccc(C(=O)N2CCN(c3ccccc3Cl)CC2)c1 [Compound 238, 3-(3-{[4-(2-chlorophenyl)piperazin-1-yl]carbonyl}benzyl)-2-imino-5,5-diphenylimidazolidin-4-one]	15
COC(=O)N1CCN(C(=O)c2cccc(CN3C(=N)NC(CCC(C)C)(c4ccc(F)cc4)C3=O)c2)CC1 (stereo not drawn) [Compound 239, methyl 4-[(3-{[4-(4-fluorophenyl)-2-imino-4-(3-methylbutyl)-5-oxoimidazolidin-1-yl]methyl}phenyl)carbonyl] piperazine-1-carboxylate]	15.1
COC(=O)N1CCN(C(=O)c2cccc(CN3C(=N)NC(c4ccc(F)cc4)(c4cccc(Br)c4)C3=O)c2)CC1 (stereo not drawn) [Compound 240, methyl 4-[(3-{[4-(3-bromophenyl)-4-(4-fluorophenyl)-2-imino-5-oxoimidazolidin-1-yl]methyl}phenyl)carbonyl] piperazine-1-carboxylate]	15.2
Cn1ncc2c1CN(C(=O)c1cccc(CN3C(=N)NC(c4ccccc4)(c4ccccc4)C3=O)c1)C2 [Compound 241, 2-imino-3-{3-[(1-methyl-4,6-dihydropyrrolo [3,4-c]pyrazol-5(1H)-yl)carbonyl]benzyl}-5,5-diphenylimidazolidin-4-one]	15.6
N=C1NC(c2ccccc2)(c2ccccc2)C(=O)N1Cc1cccc(C(=O)N2Cc3cnc(C(F)(F)F)nc3C2)c1 [Compound 242, 2-imino-5,5-diphenyl-3-(3-{[2-(trifluoromethyl)-5,7-dihydro-6H-pyrrolo[3,4-d]pyrimidin-6-yl]carbonyl}benzyl) imidazolidin-4-one]	16.6
CCCC1(c2ccccc2)NC(=N)N(Cc2cccc(C(=O)N3Cc4cnc(C#N)nc4C3)c2)C1=O (stereo not drawn) [Compound 243, 6-({3-[(2-imino-5-oxo-4-phenyl-4-propylimidazolidin-1-yl)methyl]phenyl}carbonyl)-6,7-dihydro-5H-pyrrolo[3,4-d]pyrimidine-2-carbonitrile]	16.7
CC(C)CCC1(c2ccccc2)NC(=N)N(Cc2cccc(C(=O)N3CCN(c4ncccn4)CC3)c2)C1=O (stereo not drawn) [Compound 244, 2-imino-5-(3-methylbutyl)-5-phenyl-3-{3-[(4-pyrimidin-2-ylpiperazin-1-yl)carbonyl]benzyl} imidazolidin-4-one]	16.8
CCOC(=O)c1cn2c(n1)CN(C(=O)c1cccc(CN3C(=N)NC(c4ccccc4)(c4ccccc4)C3=O)c1)CC2 [Compound 245, ethyl 7-({3-[(2-imino-5-oxo-4,4-diphenylimidazolidin-1-yl)methyl]phenyl}carbonyl)-5,6,7,8-tetrahydroimidazo[1,2-a]pyrazine-2-carboxylate]	17.1
CSc1nnc2n1CCN(C(=O)c1cccc(CN3C(=N)NC(c4ccccc4)(c4ccccc4)C3=O)c1)C2 [Compound 246, 2-imino-3-(3-{[3-(methylsulfanyl)-5,6-dihydro[1,2,4]triazolo[4,3-a]pyrazin-7(8H)-yl]carbonyl}benzyl)-5,5-diphenylimidazolidin-4-one]	17.5
